In the NIST ThermoML archive (doi:10.1016/j.jct.2017.11.017):
± gives the expanded uncertainty stated by the source.

Assay: activity coefficient (dimensionless); of the first substance listed, at infinite dilution; xn = mol fraction of the nth substance listed
Settings: 101.33 kPa, Liquid, Chromatography, x1 = 0

Q: Which results are given for `C1CCCCCCC1` [cyclooctane] + C[n+]1ccn(CCCO)c1.N#CN=C=[N-]?
A: activity coefficient (298.15 K): 216 ± 15; activity coefficient (308.15 K): 198 ± 14; activity coefficient (318.15 K): 181 ± 12; activity coefficient (328.15 K): 165 ± 11; activity coefficient (338.15 K): 153 ± 11; activity coefficient (348.15 K): 143 ± 10; activity coefficient (358.15 K): 137 ± 9

Q: Which results are given for `C1CCCC1` [cyclopentane] + C[n+]1ccn(CCCO)c1.N#CN=C=[N-]?
A: activity coefficient (298.15 K): 69.3 ± 4.7; activity coefficient (308.15 K): 63.7 ± 4.4; activity coefficient (318.15 K): 58.7 ± 4; activity coefficient (328.15 K): 54.5 ± 3.7

Q: Which results are given for `CCCCCCCCCC` [decane] + C[N+]1(CCCO)CCOCC1.N#C[N-]C#N?
A: activity coefficient (308.15 K): 2530 ± 180; activity coefficient (318.15 K): 2220 ± 150; activity coefficient (328.15 K): 1980 ± 140; activity coefficient (338.15 K): 1770 ± 120; activity coefficient (348.15 K): 1590 ± 110; activity coefficient (358.15 K): 1430 ± 99; activity coefficient (368.15 K): 1310 ± 90

Q: With `CCCCCCCCCC` [decane] + C[n+]1ccn(CCCO)c1.N#CN=C=[N-] as the compound, how does the activity coefficient (298.15 K) read?
A: The activity coefficient was 1870 ± 130.

Q: And the activity coefficient (308.15 K)?
A: The activity coefficient was 1680 ± 120.

Q: And the activity coefficient (318.15 K)?
A: The activity coefficient was 1530 ± 110.

Q: And the activity coefficient (328.15 K)?
A: The activity coefficient was 1380 ± 95.

Q: What about the activity coefficient (338.15 K) of the same compound?
A: Its activity coefficient is 1270 ± 88.

Q: And the activity coefficient (348.15 K)?
A: Its activity coefficient is 1170 ± 81.

Q: What about the activity coefficient (358.15 K) of the same compound?
A: The activity coefficient was 1070 ± 74.

Q: For `CCOCC` [diethyl ether] + C[N+]1(CCCO)CCOCC1.N#C[N-]C#N, which activity coefficient (298.15 K) is on record?
A: Its activity coefficient is 59.3 ± 4.1.

Q: And the activity coefficient (308.15 K)?
A: Its activity coefficient is 51.3 ± 3.5.

Q: What about the activity coefficient (318.15 K) of the same compound?
A: The activity coefficient was 44.7 ± 3.1.

Q: And the activity coefficient (328.15 K)?
A: Its activity coefficient is 39.2 ± 2.7.

Q: And the activity coefficient (338.15 K)?
A: Its activity coefficient is 35 ± 2.4.

Q: With `CCOCC` [diethyl ether] + C[n+]1ccn(CCCO)c1.N#CN=C=[N-] as the compound, how does the activity coefficient (318.15 K) read?
A: The activity coefficient was 20.3 ± 1.4.

Q: What about the activity coefficient (328.15 K) of the same compound?
A: Its activity coefficient is 20.3 ± 1.4.

Q: And the activity coefficient (338.15 K)?
A: The activity coefficient was 20.5 ± 1.4.

Q: And the activity coefficient (348.15 K)?
A: Its activity coefficient is 20.6 ± 1.4.

Q: What about the activity coefficient (358.15 K) of the same compound?
A: The activity coefficient was 20.7 ± 1.4.

Q: And the activity coefficient (368.15 K)?
A: Its activity coefficient is 20.8 ± 1.4.

Q: What does the source list for `CC(C)OC(C)C` [diisopropyl ether] + C[N+]1(CCCO)CCOCC1.N#C[N-]C#N?
A: activity coefficient (298.15 K): 393 ± 27; activity coefficient (308.15 K): 306 ± 21; activity coefficient (318.15 K): 244 ± 17

Q: With `CC(C)OC(C)C` [diisopropyl ether] + C[n+]1ccn(CCCO)c1.N#CN=C=[N-] as the compound, how does the activity coefficient (318.15 K) read?
A: Its activity coefficient is 96 ± 6.6.

Q: And the activity coefficient (328.15 K)?
A: The activity coefficient was 92.7 ± 6.4.

Q: And the activity coefficient (338.15 K)?
A: The activity coefficient was 90.6 ± 6.2.

Q: And the activity coefficient (348.15 K)?
A: The activity coefficient was 88 ± 6.

Q: What about the activity coefficient (358.15 K) of the same compound?
A: Its activity coefficient is 86.5 ± 5.9.

Q: And the activity coefficient (368.15 K)?
A: The activity coefficient was 84.3 ± 5.8.

Q: With `CCCOCCC` [dipropyl ether] + C[N+]1(CCCO)CCOCC1.N#C[N-]C#N as the compound, how does the activity coefficient (308.15 K) read?
A: Its activity coefficient is 218 ± 15.

Q: And the activity coefficient (318.15 K)?
A: Its activity coefficient is 202 ± 14.

Q: What about the activity coefficient (328.15 K) of the same compound?
A: The activity coefficient was 189 ± 13.

Q: What about the activity coefficient (338.15 K) of the same compound?
A: The activity coefficient was 176 ± 12.

Q: And the activity coefficient (348.15 K)?
A: Its activity coefficient is 166 ± 11.

Q: What about the activity coefficient (358.15 K) of the same compound?
A: The activity coefficient was 157 ± 11.

Q: And the activity coefficient (368.15 K)?
A: Its activity coefficient is 148 ± 10.

Q: With `CCCOCCC` [dipropyl ether] + C[n+]1ccn(CCCO)c1.N#CN=C=[N-] as the compound, how does the activity coefficient (318.15 K) read?
A: Its activity coefficient is 82.3 ± 5.6.

Q: What about the activity coefficient (328.15 K) of the same compound?
A: The activity coefficient was 79.9 ± 5.5.

Q: What about the activity coefficient (338.15 K) of the same compound?
A: The activity coefficient was 77.7 ± 5.3.

Q: And the activity coefficient (348.15 K)?
A: The activity coefficient was 75.8 ± 5.2.

Q: And the activity coefficient (358.15 K)?
A: Its activity coefficient is 74.4 ± 5.1.

Q: What about the activity coefficient (368.15 K) of the same compound?
A: Its activity coefficient is 72.5 ± 5.

Q: For `CCO` [ethanol] + C[N+]1(CCCO)CCOCC1.N#C[N-]C#N, which activity coefficient (318.15 K) is on record?
A: The activity coefficient was 1.71 ± 0.11.

Q: And the activity coefficient (328.15 K)?
A: The activity coefficient was 1.66 ± 0.11.

Q: What about the activity coefficient (338.15 K) of the same compound?
A: The activity coefficient was 1.61 ± 0.11.

Q: And the activity coefficient (348.15 K)?
A: Its activity coefficient is 1.57 ± 0.1.

Q: What about the activity coefficient (358.15 K) of the same compound?
A: Its activity coefficient is 1.54 ± 0.1.

Q: And the activity coefficient (368.15 K)?
A: Its activity coefficient is 1.51 ± 0.1.

Q: For `CCO` [ethanol] + C[n+]1ccn(CCCO)c1.N#CN=C=[N-], which activity coefficient (318.15 K) is on record?
A: The activity coefficient was 1.17 ± 0.07.

Q: And the activity coefficient (328.15 K)?
A: Its activity coefficient is 1.17 ± 0.07.

Q: What about the activity coefficient (338.15 K) of the same compound?
A: The activity coefficient was 1.18 ± 0.08.

Q: And the activity coefficient (348.15 K)?
A: The activity coefficient was 1.19 ± 0.08.

Q: What about the activity coefficient (358.15 K) of the same compound?
A: The activity coefficient was 1.2 ± 0.08.

Q: And the activity coefficient (368.15 K)?
A: Its activity coefficient is 1.2 ± 0.08.

Q: With `CCOC(C)=O` [ethyl acetate] + C[N+]1(CCCO)CCOCC1.N#C[N-]C#N as the compound, how does the activity coefficient (318.15 K) read?
A: Its activity coefficient is 9.71 ± 0.66.

Q: What about the activity coefficient (328.15 K) of the same compound?
A: Its activity coefficient is 9.78 ± 0.67.

Q: What about the activity coefficient (338.15 K) of the same compound?
A: The activity coefficient was 9.83 ± 0.67.

Q: What about the activity coefficient (348.15 K) of the same compound?
A: Its activity coefficient is 9.91 ± 0.68.

Q: And the activity coefficient (358.15 K)?
A: The activity coefficient was 10 ± 0.7.

Q: And the activity coefficient (368.15 K)?
A: Its activity coefficient is 10.1 ± 0.7.

Q: For `CCOC(C)=O` [ethyl acetate] + C[n+]1ccn(CCCO)c1.N#CN=C=[N-], which activity coefficient (318.15 K) is on record?
A: The activity coefficient was 5.72 ± 0.39.

Q: What about the activity coefficient (328.15 K) of the same compound?
A: The activity coefficient was 5.95 ± 0.41.

Q: And the activity coefficient (338.15 K)?
A: Its activity coefficient is 6.18 ± 0.42.

Q: And the activity coefficient (348.15 K)?
A: The activity coefficient was 6.36 ± 0.43.

Q: And the activity coefficient (358.15 K)?
A: Its activity coefficient is 6.61 ± 0.45.

Q: What about the activity coefficient (368.15 K) of the same compound?
A: The activity coefficient was 6.86 ± 0.47.

Q: For `CCc1ccccc1` [ethylbenzene] + C[N+]1(CCCO)CCOCC1.N#C[N-]C#N, which activity coefficient (318.15 K) is on record?
A: The activity coefficient was 26.4 ± 1.8.

Q: What about the activity coefficient (328.15 K) of the same compound?
A: Its activity coefficient is 26.3 ± 1.8.

Q: What about the activity coefficient (338.15 K) of the same compound?
A: Its activity coefficient is 26.3 ± 1.8.

Q: And the activity coefficient (348.15 K)?
A: Its activity coefficient is 26.2 ± 1.8.

Q: And the activity coefficient (358.15 K)?
A: The activity coefficient was 26.2 ± 1.8.

Q: What about the activity coefficient (368.15 K) of the same compound?
A: Its activity coefficient is 26.2 ± 1.8.
